The numbers were not newly measured in patent US20020054924A1, “Novel compositions derived from cranberry and grapefruit and therapeutic uses therefor” (priority 2000, published 2002), which cites them from elsewhere.

This series deals with cholesterol. As to conditions: chickens.

In the case of tocotrienol [Extract T3], the “hypocholesterolemic effect compared with Lovastatin” value is “twice as effective as Lovastatin™”.
